Measured values: publication PMC11945486, “TAS1R2/TAS1R3 Single-Nucleotide Polymorphisms Affect Sweet Taste Receptor Activation by Sweeteners: The SWEET Project” (Nutrients, 2025)
Read-outs that look alike come from different tables or passages of the source. No end group written: not given here.

T1: human TAS1R2-WT/TAS1R3-S446N (Homo sapiens, UniProt Q7RTX0+Q8TE23, S446N)
T1 construct: expressed in transfected cells; host or cells: HEK293T stably expressing Gα16gust44
T1 sequence (Q8TE23 20-839): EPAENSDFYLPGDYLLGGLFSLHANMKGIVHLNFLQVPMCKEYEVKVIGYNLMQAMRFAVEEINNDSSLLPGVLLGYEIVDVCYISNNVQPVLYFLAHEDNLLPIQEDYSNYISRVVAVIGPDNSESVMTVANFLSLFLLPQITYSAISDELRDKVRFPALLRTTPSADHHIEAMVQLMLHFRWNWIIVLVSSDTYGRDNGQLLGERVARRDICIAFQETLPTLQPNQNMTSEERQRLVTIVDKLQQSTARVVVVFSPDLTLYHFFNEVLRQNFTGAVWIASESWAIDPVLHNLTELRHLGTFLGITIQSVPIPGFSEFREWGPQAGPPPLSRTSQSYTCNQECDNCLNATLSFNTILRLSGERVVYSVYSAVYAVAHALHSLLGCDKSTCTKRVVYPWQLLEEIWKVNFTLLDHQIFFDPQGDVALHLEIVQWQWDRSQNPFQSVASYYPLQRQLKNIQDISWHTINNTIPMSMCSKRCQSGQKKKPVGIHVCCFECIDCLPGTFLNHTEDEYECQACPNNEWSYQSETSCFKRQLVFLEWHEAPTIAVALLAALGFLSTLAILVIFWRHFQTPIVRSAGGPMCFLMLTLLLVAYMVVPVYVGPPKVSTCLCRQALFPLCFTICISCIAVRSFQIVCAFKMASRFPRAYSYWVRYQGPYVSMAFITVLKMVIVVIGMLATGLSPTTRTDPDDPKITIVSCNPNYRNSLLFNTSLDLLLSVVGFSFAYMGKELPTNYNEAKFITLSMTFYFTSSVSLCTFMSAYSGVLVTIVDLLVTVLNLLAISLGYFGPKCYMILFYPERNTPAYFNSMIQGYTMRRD
T1 sequence (Q7RTX0 21-852 S446N): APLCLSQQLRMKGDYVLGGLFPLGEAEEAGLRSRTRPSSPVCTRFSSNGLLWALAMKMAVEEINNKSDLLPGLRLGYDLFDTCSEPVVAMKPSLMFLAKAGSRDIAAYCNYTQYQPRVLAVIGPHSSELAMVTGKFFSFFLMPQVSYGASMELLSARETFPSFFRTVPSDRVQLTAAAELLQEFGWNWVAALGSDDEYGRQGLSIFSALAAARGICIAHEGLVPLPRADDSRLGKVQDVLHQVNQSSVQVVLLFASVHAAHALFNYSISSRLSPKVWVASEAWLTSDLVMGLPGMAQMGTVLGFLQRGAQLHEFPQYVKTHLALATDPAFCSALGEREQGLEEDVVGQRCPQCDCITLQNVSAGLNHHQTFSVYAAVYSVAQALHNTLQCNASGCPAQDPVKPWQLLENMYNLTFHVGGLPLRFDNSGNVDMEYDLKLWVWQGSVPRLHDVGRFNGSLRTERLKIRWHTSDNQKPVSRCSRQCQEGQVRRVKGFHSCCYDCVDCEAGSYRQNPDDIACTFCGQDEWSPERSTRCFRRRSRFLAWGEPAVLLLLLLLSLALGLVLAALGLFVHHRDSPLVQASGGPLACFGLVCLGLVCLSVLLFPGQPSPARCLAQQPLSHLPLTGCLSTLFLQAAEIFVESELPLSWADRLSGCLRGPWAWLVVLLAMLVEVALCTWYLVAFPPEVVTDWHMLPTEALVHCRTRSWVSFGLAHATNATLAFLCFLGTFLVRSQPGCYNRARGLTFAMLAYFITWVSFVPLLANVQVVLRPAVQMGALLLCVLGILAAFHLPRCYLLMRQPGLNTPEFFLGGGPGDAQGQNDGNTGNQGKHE


Biological target: T1, human TAS1R2-WT/TAS1R3-S446N
Test: Calcium mobilisation assay, TAS1R2-WT with TAS1R3 variant S446N
Type: cell-based
Conditions: for Max ΔF/F0: maximal signal amplitude
Description: The coding sequences for TAS1R2 and TAS1R3 were commercially synthesised, and the human codon was optimised for expression in human cells. The coding sequences of human TAS1R2 and TAS1R3 were subcloned and inserted into the mammalian expression vectors pcDNA6/myc-HisA and pcDNA4/myc-HisA (Invitrogen; Thermo Fisher Scientific; Illkirch, France) between the EcoRI and NotI restriction sites, generating the plasmids pcDNA6-TAS1R2 and pcDNA4-TAS1R3, respectively. To increase protein expression in mammalian cells, an upstream start codon was used, which was a sequence called MAX, corresponding to the QBI SP163 element also described in pcDNA4-HisMax (Invitrogen; Thermo Fisher Scientific; Illkirch, France). To measure the expression level of the receptor by immunohistochemistry, we used the FLAG sequence ([…]) in the C-terminal position, which encodes the FLAG tag epitope. SNP variants of TAS1R2 and TAS1R3 were constructed based on […], respectively, using site-directed mutagenesis (Genewiz; Leipzig, Germany).
The HEK293T cells were kindly provided by Jay P. Slack (Givaudan Flavors Corporation; Cincinnati, OH, USA). HEK293T cells stably transfected with Gα16gust44 [43, 67] were seeded in poly-D-lysine-coated clear-bottom black 96-well plates (0.35 × 10^5 cells/well) in high-glucose DMEM supplemented with 2 mM GlutaMAX, 10% dialysed foetal bovine serum with penicillin/streptomycin and G418 (400 μg/mL) at 37 °C and 6.3% CO2 in a humidified atmosphere as previously reported. […] As a negative control, HEK293T cells were mock-transfected with the empty expression vector. After a further 24 h of incubation, the HEK293T cells were washed with C1 buffer (130 mM NaCl, 5 mM KCl, 10 mM HEPES pH 7.4 and 2 mM CaCl2). The 96-well plates containing the cells were then stimulated with sweet-tasting compounds. […] Different concentration ranges were tested depending on the sweet compound injected. The Ca^2+ changes were expressed as fractional changes in fluorescent light intensity: ΔF/F = (F − F0)/F0, where F was the fluorescent light intensity at each point, and F0 was the value of emitted fluorescent light prior to stimulus application. To calculate dose–response relationships, the changes in fluorescence upon stimulus application were averaged, mock-subtracted and baseline-corrected. The dose–response data obtained were adjusted using a 4-parameter logistic equation. The half-maximal effective concentrations (EC50 values) and maximal signal amplitudes were calculated using SigmaPlot software (version 15.0) (Systat Software; San Jose, CA, USA).
For in vitro calcium mobilisation assay performed on hTAS1R2-SNPs, hTAS1R3-SNPs and mTAS1R3-I60T, 6 to 7 concentrations were tested for each sweet compound, plus buffer alone. All concentration–receptor combinations were measured in duplicate, and each experiment was repeated at least 4 times (8 wells/concentration). Results were expressed for each concentration as ΔF/F mean ± SEM and represented as dose–response curves.

Row | Molecule | R1 = Variant EC50/WT EC50 | Max ΔF/F0 | EC50 (read-out: EC50) | EC50 (brazzein)
1 | CC1=CC(=O)NS(=O)(=O)O1 [Acesulfame K, acesulfame K] | 0.8 | 0.19 ± 0.01 | 487 ± 78 µM | –
2 | O=S(=O)(O)NC1CCCCC1 [Cyclamate, cyclamate] | – | – | 1480 ± 45 µM | –
3 | C[C@H](CC[C@@H](O[C@@H]1O[C@H](CO[C@@H]2O[C@H](CO)[C@@H](O)[C@H](O)[C@H]2O)[C@@H](O)[C@H](O)[C@H]1O[C@@H]1O[C@H](CO)[C@@H](O)[C@H](O)[C@H]1O)C(C)(C)O)[C@H]1CC[C@@]2(C)[C@@H]3CC=C4[C@@H](CC[C@H](O[C@@H]5O[C@H](CO[C@@H]6O[C@H](CO)[C@@H](O)[C@H](O)[C@H]6O)[C@@H](O)[C@H](O)[C@H]5O)C4(C)C)[C@]3(C)[C@H](O)C[C@]12C [Mogroside V, mogroside V] | 1.5 | 0.86 ± 0.01 | 47.7 ± 1.5 µM | –
4 | COc1ccc(CCC(=O)c2c(O)cc(O[C@@H]3O[C@H](CO)[C@@H](O)[C@H](O)[C@H]3O[C@@H]3O[C@@H](C)[C@H](O)[C@@H](O)[C@H]3O)cc2O)cc1O [NHDC, neohesperidin dihydrochalcone] | 1.0 | 1.07 ± 0.06 | 49.4 ± 8.6 µM | –
5 | COC(=O)[C@H](Cc1ccccc1)NC(=O)[C@H](CC(=O)O)NCCC(C)(C)C [Neotame] | 1.0 | 0.63 ± 0.02 | 1.22 ± 0.1 µM | –
6 | C=C(C)[C@@H]1CC=C(/C=N/O)CC1 [Perillartine, perillartine] | 1.1 | 1.42 ± 0.26 | 15.3 ± 8.6 µM | –
7 | C=C1C[C@@]23CC[C@H]4[C@@](C)(CCC[C@@]4(C)C(=O)O[C@@H]4O[C@H](CO)[C@@H](O)[C@H](O[C@@H]5O[C@H](CO)[C@@H](O)[C@H](O)[C@H]5O)[C@H]4O[C@@H]4O[C@H](CO)[C@@H](O)[C@H](O)[C@H]4O)[C@@H]2CC[C@]1(O[C@@H]1O[C@H](CO)[C@@H](O)[C@H](O[C@@H]2O[C@H](CO)[C@@H](O)[C@H](O)[C@H]2O)[C@H]1O[C@@H]1O[C@H](CO)[C@@H](O)[C@H](O)[C@H]1O)C3 [Rebaudioside M, rebaudioside M] | 0.9 | 0.64 ± 0.03 | 36.9 ± 3.6 µM | –
8 | OC[C@H]1O[C@H](O[C@]2(CCl)O[C@H](CCl)[C@@H](O)[C@@H]2O)[C@H](O)[C@@H](O)[C@H]1Cl [Sucralose] | 1.4 | 0.68 ± 0.02 | 155 ± 11 µM | –
9 | brazzein (QDKCKKVYENYPVSKCQLANQCNYDCKLDKHARSGECFYDEKRNLQCICDYCEY; ends and bridges not checked; cysteine pairing not given here; UniProt P56552 1-54, looked up) [sweet-tasting protein obtained by recombinant production using the yeast Pichia pastoris] | 1.1 | 0.98 ± 0.03 | – | 120.8 ± 9.3 µg/mL
10 | thaumatin | 0.9 | 0.70 ± 0.04 | – | –
11 | thaumatin (protein, Eight disulfides, sweet-tasting plant protein, E957) ATFEIVNRCSYTVWAAASKGDAALDAGGRQLNSGESWTINVEPGTKGGKIWARTDCYFDDSGSGICKTGDCGGLLRCKRFGRPPTTLAEFSLNQYGKDYIDISNIKGFNVPMDFSPTTRGCRGVRCAADIVGQCPAKLKAPGGGCNDACTVFQTSEYCCTTGKCGPTEYSRFFKRLCPDAFSYVLDKPTTVTCPGSSNYRVTFCPTA | – | – | 9.8 ± 1.1 µM | –
